Results as given in ChEMBL document CHEMBL1201862, “PubChem BioAssay data set” (2004).
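Five compound concentrations were applied to cells in 96-well plates for 48 hours; endpoints were derived by simple linear interpolation of the resulting dose-response curve. GI50 marks 50% less growth.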 Activity calls are given as the source filed them. Cut-off read from the data, not from the text of the source: active = GI50 up to about 1.1 µM and inactive = higher.

Experiments:
Experiment in all cases: NCI-60 cell line screen, 48 h
[1] = tested on: SF-268
[2] = tested on: SW-620
[3] = tested on: RPMI-8226
[4] = tested on: PC-3
[5] = tested on: SK-MEL-5
[6] = tested on: SNB-75
[7] = tested on: OVCAR-5
[8] = tested on: COLO 205
[9] = tested on: M14
[10] = tested on: MDA-MB-231
[11] = tested on: A549
[12] = tested on: Malme-3M
[13] = tested on: LOX IMVI
[14] = tested on: 786-0
[15] = tested on: NCI/ADR-RES
[16] = tested on: UO-31
[17] = tested on: MDA-N
[18] = tested on: SF-295
[19] = tested on: BT-549
[20] = tested on: SR
[21] = tested on: K562
[22] = tested on: CAKI-1
[23] = tested on: OVCAR-4
[24] = tested on: SNB-19
[25] = tested on: EKVX
[26] = tested on: OVCAR-8
[27] = tested on: HL-60
[28] = tested on: UACC-257
[29] = tested on: KM12
[30] = tested on: MCF7
[31] = tested on: NCI-H460
[32] = tested on: TK-10
[33] = tested on: OVCAR-3
[34] = tested on: T47D
[35] = tested on: HT-29
[36] = tested on: SK-OV-3
[37] = tested on: DU-145
[38] = tested on: U-251
[39] = tested on: SN12C
[40] = tested on: UACC-62
[41] = tested on: Hs-578T
[42] = tested on: HCT-116
[43] = tested on: IGROV-1
[44] = tested on: HCT-15
[45] = tested on: SK-MEL-28
[46] = tested on: CCRF-CEM
[47] = tested on: HOP-62
[48] = tested on: MDA-MB-435
[49] = tested on: ACHN
[50] = tested on: NCI-H23
[51] = tested on: RXF 393
[52] = tested on: NCI-H226
[53] = tested on: MOLT-4
[54] = tested on: NCI-H522
[55] = tested on: A498
[56] = tested on: SK-MEL-2
[57] = tested on: HCC 2998
[58] = tested on: HOP-92
[59] = tested on: SF-539

COc1cc([N+](=O)[O-])cc2c1NC(=O)C2(C)SC (stereo not given)
GI50 [1]: > 100 µM (inactive)
GI50 [2]: 69 µM (inactive)
GI50 [3]: > 100 µM (inactive)
GI50 [4]: > 100 µM (inactive)
GI50 [5]: > 100 µM (inactive)
GI50 [6]: 38.2 µM (inactive)
GI50 [7]: > 100 µM (inactive)
GI50 [8]: > 100 µM (inactive)
GI50 [9]: 52.8 µM (inactive)
GI50 [10]: > 100 µM (inactive)
GI50 [11]: > 100 µM (inactive)
GI50 [12]: > 100 µM (inactive)
GI50 [13]: 88.1 µM (inactive)
GI50 [14]: > 100 µM (inactive)
GI50 [15]: 94.6 µM (inactive)
GI50 [16]: > 100 µM (inactive)
GI50 [17]: 51.8 µM (inactive)
GI50 [18]: 63.7 µM (inactive)
GI50 [19]: > 100 µM (inactive)
GI50 [20]: 68.2 µM (inactive)
GI50 [21]: 34.4 µM (inactive)
GI50 [22]: > 100 µM (inactive)
GI50 [23]: 90.2 µM (inactive)
GI50 [24]: > 100 µM (inactive)
GI50 [25]: > 100 µM (inactive)
GI50 [26]: > 100 µM (inactive)
GI50 [27]: 18.3 µM (inactive)
GI50 [28]: > 100 µM (inactive)
GI50 [29]: > 100 µM (inactive)
GI50 [30]: 79.4 µM (inactive)
GI50 [31]: > 100 µM (inactive)
GI50 [32]: > 100 µM (inactive)
GI50 [33]: 77.3 µM (inactive)
GI50 [34]: 66.8 µM (inactive)
GI50 [35]: > 100 µM (inactive)
GI50 [36]: 25.4 µM (inactive)
GI50 [37]: > 100 µM (inactive)
GI50 [38]: > 100 µM (inactive)
GI50 [39]: 58.3 µM (inactive)
GI50 [40]: 96.8 µM (inactive)
GI50 [41]: > 100 µM (inactive)
GI50 [42]: 36.7 µM (inactive)
GI50 [43]: > 100 µM (inactive)
GI50 [44]: > 100 µM
GI50 [45]: > 100 µM (inactive)
GI50 [46]: 40.9 µM (inactive)
GI50 [47]: > 100 µM (inactive)
GI50 [48]: 53.1 µM (inactive)
GI50 [49]: > 100 µM (inactive)
GI50 [50]: > 100 µM (inactive)
GI50 [51]: 86.7 µM (inactive)
GI50 [52]: > 100 µM (inactive)
GI50 [53]: 31.6 µM (inactive)
GI50 [54]: > 100 µM (inactive)
GI50 [55]: > 100 µM (inactive)
GI50 [56]: 60.7 µM (inactive)
GI50 [57]: > 100 µM (inactive)

CC12CCC3c4ccc(O)cc4CCC3C1C/C(=N\O)C2O (stereo not given)
GI50 [1]: > 100 µM (inactive)
GI50 [2]: > 100 µM (inactive)
GI50 [3]: 85.1 µM (inactive)
GI50 [4]: > 100 µM (inactive)
GI50 [5]: > 100 µM (inactive)
GI50 [6]: 36.8 µM (inactive)
GI50 [7]: > 100 µM (inactive)
GI50 [8]: > 100 µM (inactive)
GI50 [9]: > 100 µM (inactive)
GI50 [10]: > 100 µM (inactive)
GI50 [11]: > 100 µM (inactive)
GI50 [12]: > 100 µM (inactive)
GI50 [13]: > 100 µM (inactive)
GI50 [14]: > 100 µM (inactive)
GI50 [15]: > 100 µM (inactive)
GI50 [16]: > 100 µM (inactive)
GI50 [17]: > 100 µM (inactive)
GI50 [18]: > 100 µM (inactive)
GI50 [19]: > 100 µM (inactive)
GI50 [20]: > 100 µM (inactive)
GI50 [21]: > 100 µM (inactive)
GI50 [22]: > 100 µM (inactive)
GI50 [23]: > 100 µM (inactive)
GI50 [24]: > 100 µM (inactive)
GI50 [25]: 26.8 µM (inactive)
GI50 [58]: > 100 µM (inactive)
GI50 [26]: > 100 µM (inactive)
GI50 [27]: 92.9 µM (inactive)
GI50 [28]: > 100 µM (inactive)
GI50 [29]: 99.5 µM (inactive)
GI50 [30]: > 100 µM (inactive)
GI50 [31]: > 100 µM (inactive)
GI50 [32]: 45.4 µM (inactive)
GI50 [33]: > 100 µM (inactive)
GI50 [34]: > 100 µM (inactive)
GI50 [35]: 77.6 µM (inactive)
GI50 [36]: > 100 µM (inactive)
GI50 [37]: > 100 µM (inactive)
GI50 [38]: > 100 µM (inactive)
GI50 [39]: > 100 µM (inactive)
GI50 [59]: 85.1 µM (inactive)
GI50 [40]: > 100 µM (inactive)
GI50 [41]: 99.1 µM (inactive)
GI50 [42]: > 100 µM (inactive)
GI50 [43]: > 100 µM (inactive)
GI50 [44]: > 100 µM
GI50 [45]: > 100 µM (inactive)
GI50 [46]: 42.7 µM (inactive)
GI50 [47]: > 100 µM (inactive)
GI50 [48]: > 100 µM (inactive)
GI50 [49]: > 100 µM (inactive)
GI50 [50]: > 100 µM (inactive)
GI50 [51]: > 100 µM (inactive)
GI50 [52]: > 100 µM (inactive)
GI50 [53]: > 100 µM (inactive)
GI50 [54]: > 100 µM (inactive)
GI50 [55]: > 100 µM (inactive)
GI50 [56]: > 100 µM (inactive)
